Data from US7166299B2, “Preparation of aqueous clear solution dosage forms with bile acids” (priority 1998, dated 2007).
Several values for one entry are separate records, joined by “and”; a condition that tells them apart may be missing. Equal values may be shown once. Read-outs that look alike come from different tables or passages of the source.

Experiments:
[1] = UDCA levels in human after oral administration of liquid solution or syrup containing 600 mg UDCA per day (five subjects); assay type: in vivo; set-up: unit not given here
From the text: FIG. 3: Diagram of the mean(n=5) for group I for pharmacokinetic parameters of UDCA in human after an oral administration of liquid formulation of UDCA prepared according to Example IX without bismuth. FIG. 4: Diagram of the mean(n=5) for group II for pharmacokinetic parameters of UDCA in human after an oral administration of liquid formulation of UDCA prepared according to Example IX. […] Cmax is shown. Five human subjects were provided with dosage forms prepared according to this Example. The results are shown in Tables 5A and 5B and rendered graphically in FIGS. 3 and 4.

[2] = human, oral, Nagamatsu et al. (1997), cited from earlier work
[3] = cited from earlier work
[4] = Hematic levels of UDCA and glyco UDCA after oral administration of 200 mg UDCA aqueous solution to three healthy men (Example VI); assay type: in vivo, human
Experimental: The aqueous solution dosage forms, according to this invention, containing 200 mg of ursodeoxycholic acid (UDCA), were prepared according to the method described in the above-described Example III and were administered to three healthy men having normal body weight after fasting. The hematic levels of UDCA and glyco UDCA were evaluated by means of well known chemical methods. After applying buffered serum to sep-pak column, methanol eluate was derivatized with phenacyl bromide at 80° C. for 45 minutes. These phenacyl bromide derivatives were dissolved in acetonitrile in preparation for HPLC. The experimental results of the absorption measured at certain times after dosage administration include the total absorption expressed as the area under the serum concentration-time curve (AUC: μg/mL×hours), the maximum hematic concentration (Cmax; μg/mL) that has been obtained, and the time (Tmax; hour) in which said maximum concentration has been obtained.
The experimental pharmacokinetic tests of the aqueous solution dosage forms according to this invention carried out on men show substantial improvement in AUC, Cmax and Tmax in comparison with the best results from any dosage forms known presently.
Table 4A and Table 4B show plasma concentration of UDCA and GUDCA measured in 3 men over time following on oral administration of the UDCA and GUDCA containing formulations according to Example VI and comparison of results against results of others employing different pharmaceutical formulations of UDCA.

[5] = oral, 200 mg UDCA solution of this invention

- UDCA level, Average ([1]; Table 5A: human, oral liquid solution containing 600 mg UDCA per day, 0 min): 0.618
- UDCA level, Average ([1]; Table 5A: human, oral liquid solution containing 600 mg UDCA per day, 5 min): 4.578
- UDCA level, Average ([1]; Table 5A: human, oral liquid solution containing 600 mg UDCA per day, 15 min): 20.394
- UDCA level, Average ([1]; Table 5A: human, oral liquid solution containing 600 mg UDCA per day, 60 min): 10.202
- UDCA level, Average ([1]; Table 5A: human, oral liquid solution containing 600 mg UDCA per day, 120 min): 2.168
- UDCA level, Average ([1]; Table 5A: human, oral liquid solution containing 600 mg UDCA per day, 240 min): 0.772
- UDCA level, Average ([1]; Table 5B: human, oral syrup containing 600 mg UDCA per day, 0 min): 0.398
- UDCA level, Average ([1]; Table 5B: human, oral syrup containing 600 mg UDCA per day, 5 min): 1.976
- UDCA level, Average ([1]; Table 5B: human, oral syrup containing 600 mg UDCA per day, 15 min): 7.144
- UDCA level, Average ([1]; Table 5B: human, oral syrup containing 600 mg UDCA per day, 60 min): 15.000
- UDCA level, Average ([1]; Table 5B: human, oral syrup containing 600 mg UDCA per day, 120 min): 4.820
- UDCA level, Average ([1]; Table 5B: human, oral syrup containing 600 mg UDCA per day, 240 min): 1.258
- concentration at 0.25 h ([4]; male, human, plasma, po, 200 mg, 200 mg UDCA solution of this invention, 0.25 h, three men): 8430 ± 1690 ng/mL
- concentration at 1 h ([4]; male, human, plasma, po, 200 mg, 200 mg UDCA solution of this invention, 1 h, three men): 1150 ± 470 ng/mL
- concentration at 1.5 h ([4]; male, human, plasma, po, 200 mg, 200 mg UDCA solution of this invention, 1.5 h, three men): 320 ± 110 ng/mL
- concentration at 0.5 h ([4]; male, human, plasma, po, 200 mg, oral, 200 mg UDCA solution of this invention, 0.5 h, three men, read-out: Plasma concentration, mean): 6550 ± 1050 ng/mL
- concentration at 0.5 h ([4]; male, human, plasma, po, 200 mg, oral, 200 mg UDCA solution of this invention, 0.5 h, read-out: Plasma concentration, individual men #1-#3): 4450 ng/mL
- concentration at 2 h ([4]; male, human, plasma, po, 200 mg, oral, 200 mg UDCA solution of this invention, 2 h, three men, read-out: Plasma concentration, mean): 190 ± 30 ng/mL
- concentration at 2 h ([4]; male, human, plasma, po, 200 mg, oral, 200 mg UDCA solution of this invention, 2 h, read-out: Plasma concentration, individual men #1-#3): 235 ng/mL
- concentration at 3 h ([4]; male, human, plasma, po, 200 mg, oral, 200 mg UDCA solution of this invention, 3 h, three men, read-out: Plasma concentration, mean): 170 ± 40 ng/mL
- concentration at 3 h ([4]; male, human, plasma, po, 200 mg, oral, 200 mg UDCA solution of this invention, 3 h, read-out: Plasma concentration, individual men #1-#3): 124 ng/mL
- AUC ([4]; male, human, plasma, po, 200 mg, oral, 200 mg UDCA solution of this invention, three men, read-out: AUC, mean): 5460 ± 660 ng·h/mL
- AUC ([4]; male, human, plasma, po, 200 mg, oral, 200 mg UDCA solution of this invention, read-out: AUC, individual men #1-#3): 4320 ng·h/mL
- Tmax ([4]; male, human, plasma, po, 200 mg, oral, 200 mg UDCA solution of this invention, read-out: Tmax, individual men #1-#3): 15 min
- Cmax ([4]; male, human, serum, po, 200 mg, oral, 200 mg UDCA solution of this invention, three men, read-out: Cmax, mean): 8430 ± 1690 ng/mL
- Tmax ([4]; male, human, serum, po, 200 mg, oral, 200 mg UDCA solution of this invention, three men, read-out: Tmax, mean): 15 min
- AUC, individual men #1-#3 [4, 5]: 6600 ng·h/mL and 5470 ng·h/mL
- Plasma concentration, individual men #1-#3 ([4]; oral, 200 mg UDCA solution of this invention, 0.5 h): 7743.2 ng/mL and 7439.5 ng/mL
- Plasma concentration, individual men #1-#3 ([4]; oral, 200 mg UDCA solution of this invention, 2 h): 217.6 ng/mL and 122.7 ng/mL
- Plasma concentration, individual men #1-#3 ([4]; oral, 200 mg UDCA solution of this invention, 3 h): 207.4 ng/mL
- Cmax compared with enteric coated sodium salt of UDCA preparations ([4]; oral, 200 mg, men): at least two times higher
- Cmax compared with regular UDCA tablet preparations ([4]; oral, 200 mg, men): four times higher
- Tmax compared with the fastest Tmax previously known ([4]; oral, 200 mg, men): at least three times faster
Compound: C[C@H](CCC(=O)O)[C@H]1CC[C@H]2[C@@H]3[C@@H](O)C[C@@H]4C[C@H](O)CC[C@]4(C)[C@H]3CC[C@]12C [UDCA, ursodeoxycholic acid (3α-7β-dihydroxy-5β-cholanic acid)]
- Cmax (M ± S.E.) ([2]; 200 mg): 1900 ± 250 ng/mL
- Tmax (M ± S.E.) ([2]; 200 mg): 90 ± 24 min
- Cmax (M ± S.E.) ([2]; 400 mg): 7090 ± 1430 ng/mL
- Tmax (M ± S.E.) ([2]; 400 mg): 48 ± 12 min
- solubility in the gastric juices and in aqueous hydrochloric acid solution [3]: especially insoluble
- solubility in the gastric pH range [3]: no longer soluble
- solubility in water [3]: practically insoluble
- Cmax, individual men #1-#3 [4, 5]: 5210 ng/mL and 10920 ng/mL and 9160 ng/mL
- Plasma concentration, individual men #1-#3 ([4]; oral, 200 mg UDCA solution of this invention, 0.25 h): 5120.2 ng/mL and 10917.1 ng/mL and 9159 ng/mL
- Plasma concentration, individual men #1-#3 ([4]; oral, 200 mg UDCA solution of this invention, 1 h): 1692.1 ng/mL and 1546 ng/mL and 216.3 ng/mL
- Plasma concentration, individual men #1-#3 ([4]; oral, 200 mg UDCA solution of this invention, 1.5 h): 525.6 ng/mL and 275.9 ng/mL and 168 ng/mL
